Test results: patent US20250221947A1, “METHODS FOR TREATING A CORONAVIRUS INFECTION USING VALPROIC ACID AND DOCOSAHEXAENOIC ACID” (priority 2024, published 2025)
Several values for one entry are separate records, joined by “and”; a condition that tells them apart may be missing. Equal values may be shown once. Entries after “also recorded” stand apart in the source; their conditions may differ. Read-outs that look alike come from different tables or passages of the source.

Assays:
HCoV-229E [1] = test: HCoV-229E viral replication inhibition in MRC5 cells (antibody- or oligonucleotide-based dot blot); type: cell-based, human coronavirus HCoV-229E; settings: for inhibition of HCoV-229E viral replication, agent alone: MRC5, MOI 0.1, 48 hours drug, antibody-based assay; for IC50: Human coronavirus 229E; for fold reduction of IC50 for inhibition of viral replication by VPA preincubation: preincubation 24 or 48 hours / at least 24 hours prior to infection
SARS-CoV2 [2] = test: Optum dataset case-control analysis: COVID-19 positivity by nucleic acid testing in patients prescribed VPA; type: in vivo; settings: patients prescribed VPA vs not, exact-matched multivariate analysis
COVID-19 [3] = test: Optum retrospective cohort: clinical progression of COVID-19 in patients prescribed or not prescribed VPA; type: in vivo
HDAC2 = HDAC2 (Chlorocebus sabaeus, UniProt A0A0D9RT33); test: Direct inhibition of HDAC2 activity in Vero cells; type: cell-based; settings: read-out: IC50 of directly inhibiting HDAC2 activity
p21 = p21 induction time course in Vero cells; type: cell-based; settings: 2.55 mM VPA
HCoV-229E [4] = test: Viral RNA as % of total RNA by RNAseq in MRC5 cells infected with HCoV-229E; type: cell-based, human coronavirus HCoV-229E; settings: drug added after 1 hour viral incubation, 48 hours; VPA 0.1 or 0.5 mM, DHA 25 μM
MRC5 cells = test: VPA time course RNAseq in MRC5 cells, SARS-CoV2 interacting (Gordon) gene set; type: cell-based, Homo sapiens
SARS-CoV2 [5] = test: SARS-CoV2 replication in MRC5 cells, viral RNA by qRT-PCR; type: cell-based
COVID-19 [6] = settings: therapeutic VPA cohort; serum levels for 442 of 691 patients; cited from earlier work
COVID-19 [7] = settings: 165 VPA-treated patients admitted for COVID-19; cited from earlier work
SARS-CoV2 [8] = settings: dose range of VPA (M range) less than the IC50 of HDAC2 inhibition; cited from earlier work
[9] = in vivo; cited from earlier work
[10] = use in pregnant women; cited from earlier work
[11] = Serum VPA levels in a national data set (LabCorp)
[12] = COVID-19 infected patients exposed to VPA, propensity-matched or multivariate-adjusted model
[13] = patients on VPA tested by LabCorp, 2021

Chain of HDAC2 (A0A0D9RT33 1-488): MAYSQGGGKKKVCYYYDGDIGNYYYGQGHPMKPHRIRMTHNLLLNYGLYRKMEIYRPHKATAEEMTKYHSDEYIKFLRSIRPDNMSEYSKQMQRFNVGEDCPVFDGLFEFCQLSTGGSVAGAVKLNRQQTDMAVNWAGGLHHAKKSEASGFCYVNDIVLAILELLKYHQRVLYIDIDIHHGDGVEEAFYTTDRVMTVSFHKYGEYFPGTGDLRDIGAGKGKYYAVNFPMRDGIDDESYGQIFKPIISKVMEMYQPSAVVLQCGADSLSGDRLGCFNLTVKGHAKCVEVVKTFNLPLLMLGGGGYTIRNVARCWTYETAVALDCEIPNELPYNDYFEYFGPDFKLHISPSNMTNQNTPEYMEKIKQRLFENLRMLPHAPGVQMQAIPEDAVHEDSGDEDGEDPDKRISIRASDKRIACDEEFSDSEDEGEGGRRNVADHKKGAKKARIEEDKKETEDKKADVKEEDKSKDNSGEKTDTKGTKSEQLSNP

CC/C=C\C/C=C\C/C=C\CCCCCCCC(=O)O [ALA, alpha-linolenic acid]
inhibition of HCoV-229E viral replication, agent alone (HCoV-229E [1]): least impact; also recorded: least inhibition

CCCCC/C=C\C/C=C\CCCCCCCC(=O)O [LA, linoleic acid]
inhibition of HCoV-229E viral replication, agent alone (HCoV-229E [1]): substantial inhibitory effect; also recorded: significant inhibition of viral replication

CC(/C=C/C(=O)NO)=C\[C@@H](C)C(=O)c1ccc(N(C)C)cc1 [Trichostatin A, trichostatin A]
inhibition of HCoV-229E viral replication, agent alone (HCoV-229E [1]): did not significantly inhibit viral replication
inhibition of viral replication in combination with DHA (HCoV-229E [1]; with 25 μM DHA): inhibition across the board; also recorded: augmented at the very highest dose of Trichostatin A tested

CCCC(CCC)C(=O)O [VPA, valproic acid]
decreased risk of contracting COVID-19 / reduction in COVID-19 positive testing (SARS-CoV2 [2]): 25%
reduction in ER visits (COVID-19 [3]; [12]): 12-15%
reduction in ICU admissions (COVID-19 [3]; [12]): 14-16%
reduction in hospital admission (COVID-19 [3]; [12]): 17-45%
reduction in mechanical ventilation (COVID-19 [3]; [12]): 33-39%
protective effect against emergency room visits (COVID-19 [3]; univariate (unadjusted) logistic regression): no protective effect against emergency room visits
IC50 (HDAC2): ≥ 2.5 mM
time of earliest p21 induction (p21): 24 h
time of maximal p21 induction (p21): 72 h
IC50 (HCoV-229E [1]; MRC5, HCoV-229E, no preincubation, read-out: IC50 in conventional coronavirus replication assay): ~5000 µM
IC50 (HCoV-229E [1]; MRC5, HCoV-229E, no preincubation, read-out: IC50 in conventional coronavirus replication assay, translated): > 720 µg/mL
IC50 (HCoV-229E [1]; MRC5, read-out: IC50 for inhibition of viral replication, MRC5 incubated with valproic acid at least 24 hours prior to infection): ~600 µM
IC50 (HCoV-229E [1]; MRC5, read-out: IC50 for inhibition of viral replication, corresponding serum level, MRC5 incubated with valproic acid at least 24 hours prior to infection): 85 µg/mL
dose required for antiviral activity (HCoV-229E [1]; VPA used alone, in vitro testing): > 0.6 mM
dose requirement of VPA for antiviral activity in combination with DHA (HCoV-229E [1]; combination of DHA and VPA in vitro (FIG. 4B)): 0.1 mM
fold reduction of IC50 for inhibition of viral replication by VPA preincubation (HCoV-229E [1]): more than 3 fold
fold reduction of IC50 for inhibition of viral replication by VPA preincubation (HCoV-229E [1]; listed as valproic acid): ~10 fold
effect on viral replication (viral RNA as % of total RNA) (HCoV-229E [4]): not significantly impacted
expression of viral pathogenicity and replication genes (Gordon gene set) (MRC5 cells; MRC5 cells, VPA 24 and 48 hours): down-regulated preferentially
time before gene expression profile changes can be detected (MRC5 cells; coronavirus permissive cell lines, VPA time course): at least 24 hours
time of maximal gene expression profile changes (MRC5 cells; coronavirus permissive cell lines, VPA time course, in some cases): 72 to 96 h
reduction by 24 hours preincubation (SARS-CoV2 [5]; 24 hours preincubation vs none): more than 50%
inhibitory activity against SARS-CoV2 (SARS-CoV2 [5]; MRC5, MOI 0.1, VPA 0.5 mM, DHA 25 μM): substantial inhibitory activity
effect of (additional) preincubation (SARS-CoV2 [5]; VPA: additional preincubation up to 5 days, DHA: preincubation): did not provide any additional effects
% viral RNA detected compared to control MRC5 cells without drug (SARS-CoV2 [5]; preincubation by 24 hours): less than 10%
% viral RNA detected compared to control MRC5 cells without drug (SARS-CoV2 [5]; without preincubation): 20%
OR for contracting COVID-19 (COVID-19 [6]): 0.218
clinical course vs matched controls (COVID-19 [7]): shorter duration of symptoms, lower in-hospital respiratory worsening, lower ICU admissions, and fewer pulmonary infiltrates
mortality vs matched controls (COVID-19 [7]): not statistically different
inhibition of viral infection (SARS-CoV2 [8]): no measurable inhibition of viral infection
target serum concentrations for seizure disorder [9]: 50 to 100 µg/mL
elevation of the risk of certain birth defects [10]: roughly three-fold
share of samples testing 79 μg/mL or higher ([11]; LabCorp, second quarter of 2021): 25%
serum VPA level, mean [11, 13]: 56.7 µg/mL and 56.65 µg/mL
serum VPA level, median [11, 13]: 59.0 µg/mL and 59 µg/mL

C/C=C1\NC(=O)[C@H]2CSSCC/C=C/[C@H](CC(=O)N[C@H](C(C)C)C(=O)N2)OC(=O)[C@H](C(C)C)NC1=O [depsipeptide]
IC50 (HCoV-229E [1]; MRC5, read-out: IC50 of inhibition of viral replication, with 25 μM DHA): 0.0001 µM
IC50 (HCoV-229E [1]; MRC5, read-out: IC50 of inhibition of viral replication, without DHA): 0.0008 µM
inhibition of HCoV-229E viral replication, agent alone (HCoV-229E [1]): significant inhibition of viral replication
